Biological target: T1, human V1a receptor (Homo sapiens, UniProt P37288)
T1 construct: expressed in transfected cells; host or cells: HEK293 cells, transiently transfected; cell membranes
Assay: human V1a receptor binding (3H-Vasopressin SPA, HEK293 cell membranes)
Conditions: membranes from HEK293 cells transiently transfected with human V1a receptor, Ki by Cheng-Prussoff, read-out: pki (hV1a) (converted)
Experimental: The human V1a receptor was cloned by RT-PCR from total human liver RNA. The coding sequence was subcloned in an expression vector after sequencing to confirm the identity of the amplified sequence. […] Cell membranes were prepared from HEK293 cells transiently transfected with the expression vector and grown in 20 liter fermenters with the following protocol.
50 g of cells were resuspended in 30 ml freshly prepared ice cold Lysis buffer (50 mM HEPES, 1 mM EDTA, 10 mM MgCl2 adjusted to pH=7.4+complete cocktail of protease inhibitor (Roche Diagnostics)), homogenized with Polytron for 1 min, and sonicated on ice for 2×2 minutes at 80% intensity (Vibracell sonicator). The preparation was centrifuged 20 min at 500 g at 4° C., the pellet was discarded and the supernatant centrifuged 1 hour at 43,000 g at 4° C. (19,000 rpm). The pellet was resuspended in 12.5 ml Lysis buffer+12.5ml Sucrose 20% and homogenized using a Polytron for 1-2 min. The protein concentration was determined by the Bradford method and aliquots were stored at −80° C. until use. For binding studies 60 mg Yttrium silicate SPA beads (Amersham) were mixed with an aliquot of membrane in binding buffer (50 mM Tris, 120 mM NaCl, 5 mM KCl, 2 mM CaCl2, 10 mM MgCl2) for 15 minutes with mixing. 50 ul of bead/membrane mixture was then added to each well of a 96 well plate, followed by 50 ul of 4 nM 3H-Vasopressin (American Radiolabeled Chemicals). For total binding measurement 100 ul of binding buffer were added to the respective wells, for non-specific binding 100 ul of 8.4 mM cold vasopressin were added, and for compound testing 100 ul of a serial dilution of each compound in 2% DMSO were added. The plate was incubated 1 h at room temperature, centrifuged 1 min at 1000 g and counted on a Packard Top-Count. Non-specific binding counts were subtracted from each well and data was normalized to the maximum specific binding set at 100%. To calculate an IC 50 the curve was fitted using a non-linear regression model (XLfit) and the Ki was calculated using the Cheng-Prussoff equation.

T1 sequence (P37288 whole entry): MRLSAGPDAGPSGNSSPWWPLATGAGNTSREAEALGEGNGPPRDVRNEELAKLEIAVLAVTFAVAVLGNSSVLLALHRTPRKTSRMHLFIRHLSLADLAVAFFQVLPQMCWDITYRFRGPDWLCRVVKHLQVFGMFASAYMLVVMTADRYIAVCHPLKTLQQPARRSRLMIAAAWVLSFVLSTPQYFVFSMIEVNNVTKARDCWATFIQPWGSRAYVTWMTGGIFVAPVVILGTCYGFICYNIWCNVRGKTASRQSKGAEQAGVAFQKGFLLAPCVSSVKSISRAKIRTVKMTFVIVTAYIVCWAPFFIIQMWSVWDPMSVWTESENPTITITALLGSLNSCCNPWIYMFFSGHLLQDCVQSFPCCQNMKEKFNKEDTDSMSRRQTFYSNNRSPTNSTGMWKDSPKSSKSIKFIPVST

SMILES	Ki [nM]
N#CCc1cc(Cl)cc2cc(C(=O)N3CCC(c4cccc5[nH]c(=O)oc45)CC3)[nH]c12 [Example 1, {5-Chloro-2-[4-(2-oxo-2,3-dihydro-benzooxazol-7-yl)-piperidine-1-carbonyl]-1H-indol-7-yl}-acetonitrile]	12.9
O=C(c1cc2cc(Cl)cc(CN3CCOCC3)c2[nH]1)N1CCC(c2cccc3[nH]c(=O)oc23)CC1 [Example 2, 7-[1-(5-Chloro-7-morpholin-4-ylmethyl-1H-indole-2-carbonyl)-piperidin-4-yl]-3H-benzooxazol-2-one]	6.53
COc1cccc(OC)c1C1CCN(C(=O)c2cc3cc(Cl)ccc3[nH]2)CC1 [Example 5, (5-Chloro-1H-indol-2-yl)-[4-(2,6-dimethoxy-phenyl)-piperidin-1-yl]-methanone]	40.7
COc1cccc(OC)c1C1CCN(C(=O)c2cc3cc(Cl)ccc3n2CC(=O)N(C)C)CC1 [Example 6, 2-{5-Chloro-2-[4-(2,6-dimethoxy-phenyl)-piperidine-1-carbonyl]-indol-1-yl}-N,N-dimethyl-acetamide]	50.1
COc1cccc(OC)c1C1CCN(C(=O)c2cc3cc(Cl)ccc3n2CC#N)CC1 [Example 7, {5-Chloro-2-[4-(2,6-dimethoxy-phenyl)-piperidine-1-carbonyl]-indol-1-yl}-acetonitrile]	14
COc1cccc(OC)c1C1CCN(C(=O)c2cc3cccc(CC#N)c3[nH]2)CC1 [Example 8, {2-[4-(2,6-Dimethoxy-phenyl)-piperidine-1-carbonyl]-1H-indol-7-yl}-acetonitrile]	86.1
COc1cccc(OC)c1C1CCN(C(=O)c2cc3cc(Cl)cc(CC#N)c3[nH]2)CC1 [Example 9, {5-Chloro-2-[4-(2,6-dimethoxy-phenyl)-piperidine-1-carbonyl]-1H-indol-7-yl}-acetonitrile]	19.5
COc1ccccc1C1CCN(C(=O)c2cc3cc(Cl)cc(CC#N)c3[nH]2)CC1 [Example 10, {5-Chloro-2-[4-(2-methoxy-phenyl)-piperidine-1-carbonyl]-1H-indol-7-yl}-acetonitrile]	45.7
COc1ccccc1C1CCN(C(=O)c2cc3cc(Cl)cc(CN4CCOCC4)c3[nH]2)CC1 [Example 11, (5-Chloro-7-morpholin-4-ylmethyl-1H-indol-2-yl)-[4-(2-methoxy-phenyl)-piperidin-1-yl]-methanone]	54.3
Cc1c(C(=O)N2CC=C(c3ccccc3)CC2)[nH]c2c(C)cccc12 [Example 12, (3,7-Dimethyl-1H-indol-2-yl)-(4-phenyl-3,6-dihydro-2H-pyridin-1-yl)-methanone]	96.6

— US20080139552A1, “INDOLES” (priority 2006, published 2008)
